PubChem BioAssay (NCI)
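Step 1: Grow cells in 96-well plates. Step 2: Expose to compound for 48 hours at 5 concentrations. Step 3: Interpolate endpoints linearly; if unreached, use highest concentration. At the GI50, growth is halved. TGI is the concentration that stops growth completely.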

Columns and labels:
Experiment in all cases: growth of human tumour cells (NCI), 48 h
A498 renal = tested on: A498 renal
T-47D breast = tested on: T-47D breast
DU-145 prostate = tested on: DU-145 prostate
SF-539 CNS = tested on: SF-539 CNS
UO-31 renal = tested on: UO-31 renal
SK-MEL-2 melanoma = tested on: SK-MEL-2 melanoma
NCI-H522 lung = tested on: NCI-H522 lung
M14 melanoma = tested on: M14 melanoma
MDA-MB-231 breast = tested on: MDA-MB-231 breast
HOP-62 NSCLC = tested on: HOP-62 NSCLC

CC(C)(C)OC(=O)NCCNC1=CC(=O)c2nc3ccccc3c3ccnc1c23
GI50 (A498 renal): 0.101 µM
TGI (A498 renal): 29.2 µM
GI50 (T-47D breast): 25.8 µM
TGI (T-47D breast): > 100 µM
GI50 (DU-145 prostate): 22.7 µM
TGI (DU-145 prostate): 80.9 µM
GI50 (SF-539 CNS): 20.2 µM
TGI (SF-539 CNS): 40.5 µM
GI50 (UO-31 renal): 28.8 µM
TGI (UO-31 renal): > 100 µM
GI50 (SK-MEL-2 melanoma): 28.4 µM
TGI (SK-MEL-2 melanoma): 85.1 µM
GI50 (NCI-H522 lung): 18.3 µM
TGI (NCI-H522 lung): 44.8 µM
GI50 (M14 melanoma): 18.5 µM
TGI (M14 melanoma): 61.1 µM
GI50 (MDA-MB-231 breast): 18.4 µM
TGI (MDA-MB-231 breast): 58.6 µM
GI50 (HOP-62 NSCLC): 24.4 µM
TGI (HOP-62 NSCLC): > 100 µM

COc1ccc2c(c1)C(=O)c1c-2n(CCCN)c(=O)c2ccccc12
GI50 (A498 renal): 0.836 µM
TGI (A498 renal): 2.21 µM
GI50 (T-47D breast): < 0.0218 µM
TGI (T-47D breast): 0.109 µM
GI50 (DU-145 prostate): 0.0179 µM
TGI (DU-145 prostate): 0.293 µM
GI50 (SF-539 CNS): 0.0609 µM
TGI (SF-539 CNS): 0.646 µM
GI50 (UO-31 renal): 0.0417 µM
TGI (UO-31 renal): 0.486 µM
GI50 (SK-MEL-2 melanoma): 0.82 µM
TGI (SK-MEL-2 melanoma): 2.67 µM
GI50 (NCI-H522 lung): 0.0123 µM
TGI (NCI-H522 lung): 0.505 µM
GI50 (M14 melanoma): 0.0951 µM
TGI (M14 melanoma): 1.53 µM
GI50 (MDA-MB-231 breast): 0.0704 µM
TGI (MDA-MB-231 breast): 0.24 µM
GI50 (HOP-62 NSCLC): < 0.0152 µM
TGI (HOP-62 NSCLC): 0.0942 µM

C=C(Cn1c(=O)c2ccccc2c2ccccc21)c1ccc(C(=O)Nc2ccccc2N)cc1
GI50 (A498 renal): 30.6 µM
TGI (A498 renal): > 100 µM
GI50 (T-47D breast): 3.86 µM
TGI (T-47D breast): > 69.3 µM
GI50 (DU-145 prostate): > 45.9 µM
TGI (DU-145 prostate): > 100 µM
GI50 (SF-539 CNS): 21.9 µM
TGI (SF-539 CNS): > 100 µM
GI50 (UO-31 renal): 2.28 µM
TGI (UO-31 renal): > 63.2 µM
GI50 (SK-MEL-2 melanoma): > 86.3 µM
TGI (SK-MEL-2 melanoma): > 100 µM
GI50 (NCI-H522 lung): 4.55 µM
TGI (NCI-H522 lung): > 94.4 µM
GI50 (M14 melanoma): > 19.8 µM
TGI (M14 melanoma): > 100 µM
GI50 (MDA-MB-231 breast): 1.75 µM
TGI (MDA-MB-231 breast): > 27.8 µM
GI50 (HOP-62 NSCLC): 40.9 µM
TGI (HOP-62 NSCLC): > 100 µM

CO[C@H](C(=O)[C@@H](O)[C@@H](C)O)[C@@H]1Cc2cc3cc(O[C@H]4C[C@@H](O[C@H]5C[C@@H](O)[C@H](O)C(C)O5)[C@H](O)C(C)O4)c(C)c(O)c3c(O)c2C(=O)[C@H]1O[C@H]1C[C@@H](O[C@H]2C[C@@H](O[C@H]3C[C@@H](OC)[C@H](O)C(C)O3)[C@@H](O)C(C)O2)C(O)(O)C(C)O1 (stereo not given in full)
GI50 (A498 renal): 0.0198 µM
TGI (A498 renal): 0.115 µM
GI50 (T-47D breast): 0.0543 µM
TGI (T-47D breast): 24.6 µM
GI50 (DU-145 prostate): 0.237 µM
TGI (DU-145 prostate): > 25 µM
GI50 (SF-539 CNS): 0.0938 µM
TGI (SF-539 CNS): 1.68 µM
GI50 (UO-31 renal): 0.209 µM
TGI (UO-31 renal): 2.84 µM
GI50 (SK-MEL-2 melanoma): 0.0551 µM
TGI (SK-MEL-2 melanoma): 0.592 µM
GI50 (NCI-H522 lung): 0.0168 µM
TGI (NCI-H522 lung): 0.304 µM
GI50 (M14 melanoma): 0.275 µM
TGI (M14 melanoma): 6.18 µM
GI50 (MDA-MB-231 breast): 0.794 µM
TGI (MDA-MB-231 breast): 24.5 µM
GI50 (HOP-62 NSCLC): 0.0513 µM
TGI (HOP-62 NSCLC): > 25 µM

C=C(CNC(=O)Nc1ccc(-c2ccccc2)cc1)c1ccc(C(=O)Nc2ccccc2N)cc1
GI50 (A498 renal): 37.4 µM
TGI (A498 renal): > 100 µM
GI50 (T-47D breast): > 100 µM
TGI (T-47D breast): > 100 µM
GI50 (DU-145 prostate): 27.7 µM
TGI (DU-145 prostate): > 100 µM
GI50 (SF-539 CNS): > 100 µM
TGI (SF-539 CNS): > 100 µM
GI50 (UO-31 renal): > 100 µM
TGI (UO-31 renal): > 100 µM
GI50 (SK-MEL-2 melanoma): > 100 µM
TGI (SK-MEL-2 melanoma): > 100 µM
GI50 (NCI-H522 lung): 15 µM
TGI (NCI-H522 lung): 99 µM
GI50 (M14 melanoma): 90.9 µM
TGI (M14 melanoma): > 100 µM
GI50 (MDA-MB-231 breast): 31.1 µM
TGI (MDA-MB-231 breast): > 100 µM
GI50 (HOP-62 NSCLC): 49.1 µM
TGI (HOP-62 NSCLC): > 100 µM

Cc1c2cc[nH]c(=O)c2c(C)c2c1[nH]c1cc(OCCN3CCN(C)CC3)ccc12
GI50 (A498 renal): 1.3 µM
TGI (A498 renal): 2.94 µM
GI50 (T-47D breast): 0.782 µM
TGI (T-47D breast): 15.2 µM
GI50 (DU-145 prostate): 0.813 µM
TGI (DU-145 prostate): 8.97 µM
GI50 (SF-539 CNS): 1.31 µM
TGI (SF-539 CNS): 2.77 µM
GI50 (UO-31 renal): 1.06 µM
TGI (UO-31 renal): 3.09 µM
GI50 (SK-MEL-2 melanoma): 1.52 µM
TGI (SK-MEL-2 melanoma): 3.43 µM
GI50 (NCI-H522 lung): 0.718 µM
TGI (NCI-H522 lung): 2.76 µM
GI50 (M14 melanoma): 1.2 µM
TGI (M14 melanoma): 2.94 µM
GI50 (MDA-MB-231 breast): 0.783 µM
TGI (MDA-MB-231 breast): 3.19 µM
GI50 (HOP-62 NSCLC): 0.469 µM
TGI (HOP-62 NSCLC): 3.24 µM

CC(=O)C1=C(O)C=C2Oc3c(C(=O)/C=C/c4cc(C(F)(F)F)cc(C(F)(F)F)c4)c(O)c(C)c(O)c3[C@]2(C)C1=O
GI50 (A498 renal): 0.457 µM
TGI (A498 renal): 1.42 µM
GI50 (T-47D breast): 0.385 µM
TGI (T-47D breast): 1.37 µM
GI50 (DU-145 prostate): 0.63 µM
TGI (DU-145 prostate): 4.91 µM
GI50 (SF-539 CNS): 1.4 µM
TGI (SF-539 CNS): 4.53 µM
GI50 (UO-31 renal): 0.438 µM
TGI (UO-31 renal): 2.05 µM
GI50 (SK-MEL-2 melanoma): 0.448 µM
TGI (SK-MEL-2 melanoma): 1.27 µM
GI50 (NCI-H522 lung): 0.38 µM
TGI (NCI-H522 lung): 1.22 µM
GI50 (M14 melanoma): 0.612 µM
TGI (M14 melanoma): 2.31 µM
GI50 (MDA-MB-231 breast): 0.525 µM
TGI (MDA-MB-231 breast): 1.84 µM
GI50 (HOP-62 NSCLC): 1.18 µM
TGI (HOP-62 NSCLC): 5.17 µM

O=[N+]([O-])c1ccc(Nc2ccccc2-c2ccccc2)c2nonc12
GI50 (A498 renal): 14.8 µM
TGI (A498 renal): 41.6 µM
GI50 (T-47D breast): 10.5 µM
TGI (T-47D breast): > 100 µM
GI50 (DU-145 prostate): 28.2 µM
TGI (DU-145 prostate): > 100 µM
GI50 (SF-539 CNS): 17 µM
TGI (SF-539 CNS): 39.9 µM
GI50 (UO-31 renal): 8.14 µM
TGI (UO-31 renal): 29.9 µM
GI50 (SK-MEL-2 melanoma): 6.16 µM
TGI (SK-MEL-2 melanoma): 20.3 µM
GI50 (NCI-H522 lung): 11.6 µM
TGI (NCI-H522 lung): 37.5 µM
GI50 (M14 melanoma): 13.3 µM
TGI (M14 melanoma): 30.6 µM
GI50 (MDA-MB-231 breast): 14.5 µM
TGI (MDA-MB-231 breast): 31.2 µM
GI50 (HOP-62 NSCLC): 17.4 µM
TGI (HOP-62 NSCLC): 42.7 µM

CCCN(CCC)CCCNCc1cc(I)cc(C)c1O
GI50 (A498 renal): 11.6 µM
TGI (A498 renal): 23.8 µM
GI50 (T-47D breast): 15.9 µM
TGI (T-47D breast): 42.1 µM
GI50 (DU-145 prostate): 19.4 µM
TGI (DU-145 prostate): 42 µM
GI50 (SF-539 CNS): 14.7 µM
TGI (SF-539 CNS): 27.9 µM
GI50 (UO-31 renal): 17.2 µM
TGI (UO-31 renal): 53.1 µM
GI50 (SK-MEL-2 melanoma): 20.1 µM
TGI (SK-MEL-2 melanoma): 36.3 µM
GI50 (NCI-H522 lung): 16.9 µM
TGI (NCI-H522 lung): 31.1 µM
GI50 (M14 melanoma): 12.8 µM
TGI (M14 melanoma): 25.4 µM
GI50 (MDA-MB-231 breast): 14.5 µM
TGI (MDA-MB-231 breast): 28.5 µM
GI50 (HOP-62 NSCLC): 13.4 µM
TGI (HOP-62 NSCLC): 26.2 µM
